From ChEMBL document CHEMBL3509549

Assays:
[1] = Maximum Tmax of saquinavir mesylate following oral repeat dosing of 1000 mg Invirase Hard Gel Capsules capsules in healthy human; assay type: ADME, organism-based; conditions: both, plasma, read-out: Maximum Tmax
[2] = Arithmetic mean of AUC(0-infinity) of saquinavir mesylate following oral repeat dosing of 1000 mg Invirase Hard Gel Capsules capsules in healthy human; assay type: ADME, organism-based; conditions: both, plasma, read-out: AUC(0-infinity)
[3] = Minimum Tmax of saquinavir mesylate following oral repeat dosing of 1000 mg Invirase Hard Gel Capsules capsules in healthy human; assay type: ADME, organism-based, Plasma; conditions: in vivo
[4] = Mean exposure of saquinavir mesylate estimated by AUC(0-infinity) following oral repeat dosing of 1000 mg Invirase Hard Gel Capsules capsules in healthy men; assay type: ADME, organism-based; conditions: male, human, plasma, read-out: AUC(0-infinity)
[5] = Maximum Tmax of saquinavir mesylate following oral repeat dosing of 1000 mg Invirase Film-coated tablet in healthy human; assay type: ADME, organism-based; conditions: both, plasma, read-out: Maximum Tmax
[6] = Mean exposure of saquinavir mesylate estimated by Cmax following oral repeat dosing of 1000 mg Invirase Hard Gel Capsules capsules in healthy human; assay type: ADME, organism-based; conditions: both, plasma
[7] = Mean exposure of saquinavir mesylate estimated by Cmax following oral repeat dosing of 1000 mg Invirase Film-coated tablet in healthy woman; assay type: ADME, organism-based; conditions: female, human, plasma
[8] = Median Tmax of saquinavir mesylate following oral repeat dosing of 1000 mg Invirase Hard Gel Capsules capsules in healthy human; assay type: ADME, organism-based; conditions: both, plasma, read-out: Median Tmax
[9] = Arithmetic mean of AUC(0-infinity) of saquinavir mesylate following oral repeat dosing of 1000 mg Invirase Film-coated tablet in healthy human; assay type: ADME, organism-based; conditions: both, plasma, read-out: AUC(0-infinity)
[10] = Mean exposure of saquinavir mesylate estimated by Cmax following oral repeat dosing of 1000 mg Invirase Hard Gel Capsules capsules in healthy men; assay type: ADME, organism-based; conditions: male, human, plasma
[11] = Mean exposure of saquinavir mesylate estimated by AUC(0-infinity) following oral repeat dosing of 1000 mg Invirase Film-coated tablet in healthy woman; assay type: ADME, organism-based; conditions: female, human, plasma, read-out: AUC(0-infinity)
clinical [12] = conditions: both, human, plasma, po, 1000 mg
clinical [13] = conditions: both, human, plasma, po, 1000 mg; remark: listed apart in the source
clinical [14] = conditions: both, human, plasma, po, 1000 mg; remark: listed apart in the source
[15] = Arithmetic mean of Cmax of saquinavir mesylate following oral repeat dosing of 1000 mg Invirase Hard Gel Capsules capsules in healthy human; assay type: ADME, organism-based; conditions: both, plasma
[16] = Minimum Tmax of saquinavir mesylate following oral repeat dosing of 1000 mg Invirase Film-coated tablet in healthy human; assay type: ADME, organism-based; conditions: both, plasma, read-out: Minimum Tmax
[17] = Mean exposure of saquinavir mesylate estimated by Cmax following oral repeat dosing of 1000 mg Invirase Hard Gel Capsules capsules in healthy woman; assay type: ADME, organism-based; conditions: female, human, plasma
[18] = Arithmetic mean of Cmax of saquinavir mesylate following oral repeat dosing of 1000 mg Invirase Film-coated tablet in healthy human; assay type: ADME, organism-based; conditions: both, plasma
[19] = Mean exposure of saquinavir mesylate estimated by AUC(0-infinity) following oral repeat dosing of 1000 mg Invirase Film-coated tablet in healthy men; assay type: ADME, organism-based; conditions: male, human, plasma, read-out: AUC(0-infinity)
[20] = Geometric mean of Cmax of saquinavir mesylate following oral repeat dosing of 1000 mg Invirase Film-coated tablet in healthy human; assay type: ADME, organism-based; conditions: both, plasma
[21] = Mean exposure of saquinavir mesylate estimated by AUC(0-infinity) following oral repeat dosing of 1000 mg Invirase Hard Gel Capsules capsules in healthy woman; assay type: ADME, organism-based; conditions: female, human, plasma, read-out: AUC(0-infinity)
[22] = Geometric mean of Cmax of saquinavir mesylate following oral repeat dosing of 1000 mg Invirase Hard Gel Capsules capsules in healthy human; assay type: ADME, organism-based; conditions: both, plasma
[23] = Median Tmax of saquinavir mesylate following oral repeat dosing of 1000 mg Invirase Film-coated tablet in healthy human; assay type: ADME, organism-based; conditions: both, plasma, read-out: Median Tmax
[24] = Geometric mean of AUC(0-infinity) of saquinavir mesylate following oral repeat dosing of 1000 mg Invirase Film-coated tablet in healthy human; assay type: ADME, organism-based; conditions: both, plasma, read-out: AUC(0-infinity)
clinical [25] = conditions: both, human, plasma, po, 1000 mg; remark: listed apart in the source
[26] = Mean exposure of saquinavir mesylate estimated by Cmax following oral repeat dosing of 1000 mg Invirase Film-coated tablet in healthy men; assay type: ADME, organism-based; conditions: male, human, plasma
[27] = Mean exposure of saquinavir mesylate estimated by Cmax following oral repeat dosing of 1000 mg Invirase Film-coated tablet in healthy human; assay type: ADME, organism-based; conditions: both, plasma

CC(C)(C)NC(=O)[C@@H]1C[C@@H]2CCCC[C@@H]2CN1C[C@@H](O)[C@H](Cc1ccccc1)NC(=O)[C@H](CC(N)=O)NC(=O)c1ccc2ccccc2n1
Tmax [1]: 10 h | AUC(0-inf) [2]: 1190 ng·h/mL | Minimum Tmax [3]: 1 h | AUC(0-inf) [4]: 1040 ng·h/mL | Tmax [5]: 6 h | Cmax [6]: 285 ng/mL | Cmax [7]: 395 ng/mL | Tmax [8]: 4.37 h | AUC(0-inf) [9]: 1510 ng·h/mL | Cmax [10]: 265 ng/mL | AUC(0-inf) [11]: 1480 ng·h/mL | half-life (clinical [12]): 7.73 h | half-life (clinical [13]): 7.89 h | half-life (clinical [14]): 8.29 h | Cmax [15]: 348 ng/mL | Tmax [16]: 1.02 h | Cmax [17]: 306 ng/mL | Cmax [18]: 404 ng/mL | AUC(0-inf) [19]: 1030 ng·h/mL | Cmax [20]: 332 ng/mL | AUC(0-inf) [21]: 1090 ng·h/mL | Cmax [22]: 285 ng/mL | Tmax [23]: 3.88 h | AUC(0-inf) [24]: 1240 ng·h/mL | half-life (clinical [25]): 7.51 h | Cmax [26]: 278 ng/mL | Cmax [27]: 332 ng/mL
